In the assay the test system is NRF2 (NQO1 activity as marker for NRF2 activation), BEAS-2B cells. As to the kind of experiment: BEAS-2B NQO1 MTT Assay. The settings on record: Homo sapiens. It counts as cell-based. Put shortly: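 BEAS-2B cells were exposed to compound for 48 h at 37° C, 5% CO2, then lysed. NQO1 activity was measured kinetically by MTT reduction at 570 nm over 30 minutes; EC50 came from 3-parameter fit of Delta OD/min versus log concentration.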

Setting [1] is: EC50 of NQO1 specific activity induction, 48 hours incubation, read-out: EC50.

Data on eight molecules can be found in patent US11078216B2, “Bisaryl amides as NRF2 activators” (GLAXOSMITHKLINE INTELLECTUAL PROPERTY DEVELOPMENT LIMITED, priority 2016, dated 2021).

Structures can show the parent of a compound that is named as a salt. Where two headings read alike, the source gives them in different places.

As to `CC[C@@H]1CN(Cc2cc([C@H](CC(=O)NCCOC)c3ccc4c(nnn4CC)c3C)ccc2C)S(=O)(=O)c2cccnc2O1` [Example 41, (S)-3-(3-(((R)-4-Ethyl-1,1-dioxido-3,4-dihydro-2H-pyrido[2,3-b][1,4,5]oxathiazepin-2-yl)methyl)-4-methylphenyl)-3-(1-ethyl-4-methyl-1H-benzo[d][1,2,3]triazol-5-yl)-N-(2-methoxyethyl)propanamide], under setting [1], the EC50 (as a rule, the concentration at which the effect is half-maximal) was in the range of 100 to 1000 nM. Same read-out and setting: the figure for `CC[C@@H]1CN(Cc2cc([C@H](CC(=O)NCC(=O)NC(C)C)c3ccc4c(nnn4CC)c3C)ccc2C)S(=O)(=O)c2cccnc2O1` [Example 42, (S)-3-(3-(((R)-4-Ethyl-1,1-dioxido-3,4-dihydro-2H-pyrido[2,3-b][1,4,5]oxathiazepin-2-yl)methyl)-4-methylphenyl)-3-(1-ethyl-4-methyl-1H-benzo[d][1,2,3]triazol-5-yl)-N-(2-(isopropylamino)-2-oxoethyl)propanamide] is 1000 to 10000 nM; for `CC[C@@H]1CN(Cc2cc([C@H](CC(=O)NC(C)C(N)=O)c3ccc4c(nnn4CC)c3C)ccc2C)S(=O)(=O)c2cccnc2O1` (stereo partly drawn) [Example 43, (3S)—N-(1-Amino-1-oxopropan-2-yl)-3-(3-(((R)-4-ethyl-1,1-dioxido-3,4-dihydro-2H-pyrido[2,3-b][1,4,5]oxathiazepin-2-yl)methyl)-4-methylphenyl)-3-(1-ethyl-4-methyl-1H-benzo[d][1,2,3]triazol-5-yl)propanamide] it is 100 to 1000 nM; for `CC[C@@H]1CN(Cc2cc([C@H](CC(=O)NCCCC#N)c3ccc4c(nnn4CC)c3C)ccc2C)S(=O)(=O)c2cccnc2O1` [Example 44, (S)-N-(3-Cyanopropyl)-3-(3-(((R)-4-ethyl-1,1-dioxido-3,4-dihydro-2H-pyrido[2,3-b][1,4,5]oxathiazepin-2-yl)methyl)-4-methylphenyl)-3-(1-ethyl-4-methyl-1H-benzo[d][1,2,3]triazol-5-yl)propanamide] it is 100 to 1000 nM. In the case of `CC[C@@H]1CN(Cc2cc([C@H](CC(=O)NCCNC(C)=O)c3ccc4c(nnn4CC)c3C)ccc2C)S(=O)(=O)c2cccnc2O1` [Example 45, (S)—N-(2-Acetamidoethyl)-3-(3-(((R)-4-ethyl-1,1-dioxido-3,4-dihydro-2H-pyrido[2,3-b][1,4,5]oxathiazepin-2-yl)methyl)-4-methylphenyl)-3-(1-ethyl-4-methyl-1H-benzo[d][1,2,3]triazol-5-yl)propanamide], the EC50 was 100 to 1000 nM under setting [1] and less than 0.17 nM (in some determinations, read-out: EC50 values in some determinations). `CC[C@@H]1CN(Cc2cc([C@@H](CC(=O)Nc3cccnc3)c3ccc4c(nnn4C)c3C)ccc2C)Cc2ncccc2O1` [Example 46, (R)-3-(1,4-Dimethyl-1H-benzo[d][1,2,3]triazol-5-yl)-3-(3-(((R)-2-ethyl-2,3-dihydropyrido[2,3-f][1,4]oxazepin-4(5H)-yl)methyl)-4-methylphenyl)-N-(pyridin-3-yl)propanamide, Formic Acid Salt]: the EC50 under setting [1] lay within 1000 to 10000 nM. As to `CC[C@@H]1CN(Cc2cc([C@H](CC(=O)Nc3cccnc3)c3ccc4c(nnn4C)c3C)ccc2C)Cc2ncccc2O1` [Example 47, (S)-3-(1,4-Dimethyl-1H-benzo[d][1,2,3]triazol-5-yl)-3-(3-(((R)-2-ethyl-2,3-dihydropyrido[2,3-f][1,4]oxazepin-4(5H)-yl)methyl)-4-methylphenyl)-N-(pyridin-3-yl)propanamide, Formic Acid Salt], the EC50 under setting [1] fell in the range of 100 to 1000 nM.

Consider `CCn1cc(CO[C@H](c2ccc(C)c(CN3C[C@@H](C)Cc4ccncc4S3(=O)=O)c2)C(C)(C)C(=O)Nc2cccnc2)nn1` [Example 48, (R)-3-((1-Ethyl-1H-1,2,3-triazol-4-yl)methoxy)-2,2-dimethyl-3-(4-methyl-3-(((S)-4-methyl-1,1-dioxido-4,5-dihydropyrido[4,3-f][1,2]thiazepin-2(3H)-yl)methyl)phenyl)-N-(pyridin-3-yl)propanamide, Formic Acid Salt], for which the EC50 under setting [1] was in the range of 100 to 1000 nM.
